Measured values as given in ChEMBL document CHEMBL4651402, “Screening of ~5500 FDA-approved drugs and clinical candidates for anti-SARS-CoV-2 activity” (2021).

How the values were obtained:
in vitro = settings: chlorocebus sabaeus, Vero E6 (Vero C1008) cells
SARS-CoV-2 [1] = experiment: microbe, parasite or virus in culture; settings: Severe acute respiratory syndrome coronavirus 2, Vero C1008, 48 h
SARS-CoV-2 [2] = experiment: microbe, parasite or virus in culture; type: functional, organism-based, Chlorocebus sabaeus, Vero C1008; settings: Severe acute respiratory syndrome coronavirus 2, Vero C1008, 48 h

| SMILES | CC50 at 48 h (in vitro; CC50) [µM] | CC50 at 48 h (in vitro; pCC50) [µM] | IC50 (SARS-CoV-2 [1]) [µM] | IC50 (SARS-CoV-2 [1]; read-out: pIC50 (converted)) [µM] | IC50 (SARS-CoV-2 [2]; read-out: IC50) [µM] | IC50 (SARS-CoV-2 [2]; read-out: pIC50 (converted)) [µM] |
| --- | --- | --- | --- | --- | --- | --- |
| COc1cc2c3cc1Oc1cc(ccc1O)C[C@@H]1c4c(cc(OC)c(O)c4Oc4ccc(cc4)C[C@H]3N(C)CC2)CCN1C | 11.5 | 11.5 | > 10 | > 10 | ~5.37 | ~5.37 |
| COc1ccc(C[C@@H]2c3cc(OC)c(OC)cc3CC[N@+]2(C)CCC(=O)OCCCCCOC(=O)CC[N@@+]2(C)CCc3cc(OC)c(OC)cc3[C@H]2Cc2ccc(OC)c(OC)c2)cc1OC | > 20 | > 20 |  |  | > 20 | > 20 |
| Cc1[nH]c(/C=C2/C(=O)Nc3ccccc32)c(C)c1CCC(=O)O | > 50.1 | > 50.1 | ~2 | ~2 | > 50.1 | > 50.1 |
| COC(=O)N[C@H](C(=O)N1CCC[C@H]1c1ncc(-c2ccc(-c3ccc(-c4cnc([C@@H]5CCCN5C(=O)[C@@H](NC(=O)OC)C(C)C)[nH]4)cc3)cc2)[nH]1)C(C)C | ~19.7 | ~19.5 | > 100 | > 100 | > 100 | > 100 |
| CC(C)[C@H](N/C(=N\S(=O)(=O)c1ccc(Cl)cc1)N1C[C@@H](c2ccccc2)C(c2ccc(Cl)cc2)=N1)C(N)=O | 16 | 15.8 | > 100 | > 100 | > 50.1 | > 50.1 |
| COc1ccc2c(c1)N(CC(C)CN(C)C)c1ccccc1S2 (stereo not drawn) | 22.9 | 22.9 | > 100 | > 100 | > 100 | > 100 |
| COc1cc2c3cc1Oc1c(OC)c(OC)cc4c1[C@@H](Cc1cccc(c1)Oc1ccc(c(O)c1)C[C@@H]3N(C)CC2)N(C)CC4 | 10.2 | 10.2 | 8.51 | 8.51 | > 6.31 | > 6.31 |
| COC(=O)N[C@H](C(=O)N1CCC[C@H]1c1nc(-c2ccc3cc(-c4ccc5[nH]c([C@@H]6CCCN6C(=O)[C@@H](NC(=O)OC)C(C)C)nc5c4)ccc3c2)c[nH]1)C(C)C | 12.7 | 12.6 | > 100 | > 100 | > 100 | > 100 |
| CCC1CN2CCC1CC2C(O)c1ccnc2ccc(OCCC(C)C)cc12 (stereo not drawn) | 11.4 | 11.2 | > 100 | > 100 | > 100 | > 100 |
| COc1ccc(C#Cc2ccccc2)c(CCC(C)N(C)CCc2ccc(OC)c(OC)c2)c1 (stereo not drawn) | 4.84 | 4.79 | 4.27 | 4.27 | > 100 | > 100 |
| CN(C)C/C=C(\c1ccc(Br)cc1)c1cccnc1 | > 10 | > 10 | > 20 | > 20 |  |  |
| CCC(CC)COC(=O)[C@H](C)N[P@](=O)(OC[C@H]1O[C@@](C#N)(c2ccc3c(N)ncnn23)[C@H](O)[C@@H]1O)Oc1ccccc1 | 95.5 | 95.5 | ~4.64 | ~4.68 | ~2.6 | ~2.57 |
| CN1[C@@H]2CC[C@H]1CC(OC(c1ccccc1)c1ccccc1)C2 (stereo partly drawn) | ~46.8 | ~46.8 |  |  |  |  |
| O=C1NCN(c2ccccc2)C12CCN(CCCC(c1ccc(F)cc1)c1ccc(F)cc1)CC2 | 7 | 6.92 | > 100 | > 100 | > 100 | > 100 |
| CCN(CCO)CCC[C@H](C)Nc1ccnc2cc(Cl)ccc12 | > 50.1 | > 50.1 | 12.7 | 12.6 | ~18.8 | ~18.6 |
| O=C(NO)c1ccc(C2=Nc3ccccc3Oc3ccccc32)cc1 | 1.55 | 1.55 | > 100 | > 100 | > 100 | > 100 |
| CCOC(=O)Oc1c(OC)cc(C(=O)OC2CC3CN4CCc5c([nH]c6cc(OC)ccc56)C4CC3C(C(=O)OC)C2OC)cc1OC (stereo not drawn) | 8.91 | 8.91 | > 100 | > 100 | > 100 | > 100 |
| CC(CN(C)C)CN1c2ccccc2Sc2ccccc21 (stereo not drawn) | 21.4 | 21.4 | 17.4 | 17.4 | > 25.1 | > 25.1 |
| CN1CCC[C@@H](CN2c3ccccc3Sc3ccccc32)C1 | 11.8 | 11.7 | > 20 | > 20 | > 100 | > 100 |
| OC(Cn1cncn1)(Cn1cnc(/C=C/c2ccc(OCC(F)(F)C(F)F)cc2)n1)c1ccc(F)cc1F (stereo not drawn) | 25.7 | 25.7 | > 100 | > 100 | > 100 | > 100 |
| CC(=O)NC1(c2ccccc2)CCN(CCC(CN(C)C(=O)c2ccccc2)c2ccc(Cl)c(Cl)c2)CC1 (stereo not drawn) | 23.4 | 23.4 | > 100 | > 100 | > 100 | > 100 |
